This is an account of results in US20140170096A1, “SUNSCREEN COMPOSITIONS” (priority 2011, published 2014).

Entries after “also recorded” stand apart in the source; their conditions may differ. Where two headings read alike, the source gives them in different places.

In series [1] the test system is viruses in water surrounding coral nubbins. Put plainly: Viral abundance and viral enrichment in seawater surrounding coral nubbins (microcosm incubation). The following applies: for Total viral abundances (TVN): seawater surrounding Acropora sp. nubbins, compound concentration per Table 2; for Viral enrichment factor (VEF): ratio of viral abundances, end vs start of incubation. The protocol:
(§1) In situ tests were performed on nubbins (i.e., small branches of about 3-6 cm) of the stony coral Acropora sp. The nubbins were incubated in microcosms in presence of known concentrations of various ingredients potentially to be included in the composition of the eco-compatible sunscreen cream. In particular, coral nubbins (including more than 3000 polyps each) were collected by scuba divers from the same colony, located at a depth of about 3 m on the edge of the reef slope. Sampling of nubbins was performed by means of forceps. The nubbins were washed with seawater filtered onto 0.02-μm filters to eliminate viruses and prokaryotes. Each microcosm was prepared with a replicate set of nubbins (n=3) immersed in sterile polyethylene bags (Whirl-pack, Nasco, Fort Atkinson, Wis., USA) filled with 2 L filtered seawater. A total of 27 microcosms were prepared, in order to test 20 ingredients with the respective positive and negative controls. The microcosms were incubated at in situ temperature and light conditions for 72 hours.
(§2) After subsampling, sea water was transferred into sterile test tubes without use of fixatives and stored at −20° C. until laboratory analysis for quantification of viral and prokaryotic abundance. Once in laboratory, the water samples were immediately processed. Briefly, 200 uL sea water were diluted 1:10 with prefiltered MilliQ water, through 0.02-μm pore filters (Anodisc filter; 25-mm diameter, Al2O3; Whatman) and stained with 20 μL SYBR Green (stock solution diluted 1:20; Invitrogen, Carlsbad, Calif., USA). […] Slides were stored at −20° C. until microscopy analysis. Virus and prokaryote counts were obtained by epifluorescence microscopy (magnification, ×1000; Zeiss Axioplan) by examining at least 10 optical fields, that is, at least 200 cells or viruses per replicate. Viral (and prokaryotic) enrichment was calculated as ratio between virus (and prokaryote) abundances and virus (and prokaryote) abundance at the […] of the experiment.

Series [2] deals with prokaryotes in water surrounding coral nubbins. Put plainly: Prokaryotic (bacterial) abundance and enrichment in seawater surrounding coral nubbins (microcosm incubation). The following applies: seawater surrounding Acropora sp. nubbins. The protocol:
as §1, §2

The subject of series [3] is symbiotic zooxanthellae released from coral nubbins. Put plainly: Zooxanthellae counts: zooxanthellae released in water surrounding coral nubbins. Format: in vivo, Acropora sp. The following applies: for Healthy zooxanthellae released / Pale zooxanthellae released / Total zooxanthellae released / Transparent (i.e., dead) zooxanthellae released: end of incubation (72 h); for Percentage of healthy zooxanthellae released / Percentage of pale zooxanthellae released / Percentage of transparent zooxanthellae released: of total released; for Abundance of released zooxanthellae compared with the BLK system: statistical analysis, P<0.01. The protocol:
as §1
Subsamples (50 mL) of seawater surrounding coral nubbins were collected at the start of the experiment (T0) and after 6, 12, 24, 36, 48 and 72 hours of incubation. The subsamples were fixed in 3% glutaraldehyde and then about 6.0 ml of each replicate was filtered through 2.0-μm polycarbonate filters. Filters were mounted on glass slides and zooxanthellae counted under epifluorescence microscopy (Zeiss Axioplan, Carl Zeiss Inc., Jena, Germany; ×400 and ×1000) using standard and UV light.

The next series has as its system coral reefs. Put plainly: Summary of eco-compatibility of tested products with coral reefs. Set-up: species or system Acropora sp. The protocol: In order to select the most eco-compatible products for each group of compounds (i.e., base cream, fragrance, antioxidants and filters) the following criteria were selected:
1. coral bleaching level; 2. degree of release of symbiotic zooxanthellae; 3. zooxanthellae health conditions; 4. viral enrichment in the incubation medium with respect to controls.

For series [4], the system named is stony coral Acropora sp. nubbins. Put plainly: Quantification of coral bleaching by colorimetric (CMYK) analysis of digital photographs. The following applies: for Number of color channels (of 4, CMYK) significantly altered: after 72 h of incubation; for One-way ANOVA probability level, color component Black (K) / One-way ANOVA probability level, color component Cyan (C) / One-way ANOVA probability level, color component Magenta (M) / One-way ANOVA probability level, color component Yellow (Y): coral color change, start vs after treatment. Format: in vivo. The protocol: as §1
Photographs were taken under identical illumination with a Canon PowerShot A620 digital camera (Canon Inc., Tokyo, Japan) with a scale meter on the background. The photos were successively analyzed with a photo-editing software (Adobe Photoshop CS2) for color composition [cyan, magenta, yellow, black (CMYK)]. Levels of bleaching were measured as the difference between the corals' color at the beginning of the experiment and after treatments. Variations in the percentage of the different color components (CMYK) were analyzed with one-way analysis of variance (ANOVA). To rank the bleaching effect due to the compounds tested, a Bray-Curtis similarity matrix was prepared and a multidimensional scaling analysis of the shifts in CMYK color composition of treated corals was performed using Primer 5.0 software (Primer-E Ltd., Plymouth, UK). Bleaching rates were measured as the dissimilarity percentage in CMYK color composition between treated and control corals using the SIMPER tool of Primer 5.0 software (Primer-E Ltd).

For `Cc1c(C)c2c(c(C)c1O)CC[C@@](C)(CCC[C@H](C)CCC[C@H](C)CCCC(C)C)O2` [System D16, Alpha-tocopherol], the “Total viral abundances (TVN)” value in series [1] (incubation 0 (start)) turned out to be 3.24E+05 viruses ml^−1. In series [1] (incubation 12 h), the “Total viral abundances (TVN)” value is 1.46E+06 viruses ml^−1. The “Viral enrichment factor (VEF)” value in series [1] stood at 4.54. Further, the “Bacterial abundance (total bacterial number, TBN)” value (“Bacterial abundance” for short) in series [2] (incubation 0 (start)) stood at 3.78E+04. In series [3], the Healthy zooxanthellae released was 4.09E+03 cells ml^−1; the Pale zooxanthellae released is reported as 1.25E+04 cells ml^−1; the Total zooxanthellae released is 2.67E+04 cells ml^−1; the “Transparent (i.e., dead) zooxanthellae released” value is 1.01E+04 cells ml^−1. In addition, the “Abundance of released zooxanthellae compared with the BLK system” value in series [3] was “significantly higher”. For the same compound, in series [3] (end of incubation), the “Percentage of healthy zooxanthellae released” value is 15%, the “Percentage of pale zooxanthellae released” value is given as 47% and the “Percentage of transparent zooxanthellae released” value came out at 38%. For the same compound, in the series with coral reefs (criteria: bleaching level, zooxanthellae release, zooxanthellae health, viral enrichment, listed as Tocopherol), the Eco-compatibility result is given as “Highly compatible”. Also, the Eco-compatibility entry in the series on coral reefs (criteria: bleaching level, zooxanthellae release, zooxanthellae health, viral enrichment, listed as tocopherol) is given as “greater eco-compatibility”.
On to `CCCCCCOC(=O)c1ccccc1C(=O)c1ccc(N(CC)CC)cc1O` [System D25, 2-[4-(diethylamine)-2-hydroxybenzoyl]hexyl benzoate], for which the “Total viral abundances (TVN)” value in series [1] (incubation 0 (start)) is 3.67E+05 viruses ml^−1. Besides, the “Total viral abundances (TVN)” value in series [1] (incubation 12 h) came to 2.63E+06 viruses ml^−1. Moreover, the “Viral enrichment factor (VEF)” value in series [1] is 7.44. For the same compound, the “Bacterial abundance” value in series [2] (incubation 0 (start)) is given as 3.67E+05. For the same compound, in series [2] (incubation 12 h), the “Bacterial abundance” value is listed as 2.63E+06. Also, in series [3], the Healthy zooxanthellae released was determined as 3.35E+02 cells ml^−1; the Pale zooxanthellae released was found to be 8.86E+03 cells ml^−1; the Total zooxanthellae released was determined as 1.64E+04 cells ml^−1; the “Transparent (i.e., dead) zooxanthellae released” value was determined as 7.25E+03 cells ml^−1. Further, in series [3] (end of incubation), the “Percentage of healthy zooxanthellae released” value is 2%, the “Percentage of pale zooxanthellae released” value worked out at 54% and the “Percentage of transparent zooxanthellae released” value worked out at 44%. Moreover, the Eco-compatibility result in the series with coral reefs (criteria: bleaching level, zooxanthellae release, zooxanthellae health, viral enrichment, listed as DHHB) is recorded as “greater eco-compatibility; also recorded: Highly compatible”.
On to `CO[C@@]12[C@H](COC(N)=O)C3=C(C(=O)C(C)=C(N)C3=O)N1C[C@@H]1N[C@@H]12` [MITO, Mitomycin C, reference compound], for which the “Total viral abundances (TVN)” value in series [1] (incubation 0 (start)) is on record as 1.11E+05 viruses ml^−1. In addition, the “Total viral abundances (TVN)” value in series [1] (incubation 12 h) stood at 1.53E+06 viruses ml^−1. Further, in series [4], the “Number of color channels (of 4, CMYK) significantly altered” value is 4; the “One-way ANOVA probability level, color component Black (K)” value is listed as “** (** = P < 0.01)”; the “One-way ANOVA probability level, color component Cyan (C)” value is listed as “** (** = P < 0.01)”; the “One-way ANOVA probability level, color component Magenta (M)” value is given as “** (** = P < 0.01)”. Also, in series [4], the “One-way ANOVA probability level, color component Yellow (Y)” value is reported as “** (** = P < 0.01)”. Besides, the “Bacterial abundance” value in series [2] (incubation 0 (start)) came to 1.11E+05. In series [2] (incubation 12 h), the “Bacterial abundance” value amounted to 1.53E+06. In series [3], the Healthy zooxanthellae released was found to be 0.00E+00 cells ml^−1; the Pale zooxanthellae released is 5.25E+03 cells ml^−1; the Total zooxanthellae released amounted to 2.20E+04 cells ml^−1; the “Transparent (i.e., dead) zooxanthellae released” value was determined as 1.68E+04 cells ml^−1. In series [3] (end of incubation), the “Percentage of healthy zooxanthellae released” value was 0%, the “Percentage of pale zooxanthellae released” value was found to be 24% and the “Percentage of transparent zooxanthellae released” value is 76%.
As for `CC(C)(C)CC(C)(C)c1cc(Cc2cc(C(C)(C)CC(C)(C)C)cc(-n3nc4ccccc4n3)c2O)c(O)c(-n2nc3ccccc3n2)c1` [System D22], the “Decrease of VPR” value in series [1] (after incubations) is given as “up to 10 times”. In addition, the “Total viral abundances (TVN)” value in series [1] (incubation 0 (start)) was 5.06E+05 viruses ml^−1. The “Total viral abundances (TVN)” value in series [1] (incubation 12 h) was 2.99E+06 viruses ml^−1. The “Viral enrichment factor (VEF)” value in series [1] turned out to be 6.16. For the same compound, the “Bacterial abundance” value in series [2] (incubation 0 (start)) is on record as 5.47E+04. Besides, the “Bacterial abundance” value in series [2] (incubation 12 h) was 9.18E+05. Moreover, in series [3], the Healthy zooxanthellae released was 4.70E+02 cells ml^−1; the Pale zooxanthellae released was determined as 6.91E+03 cells ml^−1; the Total zooxanthellae released was 1.80E+04 cells ml^−1; the “Transparent (i.e., dead) zooxanthellae released” value stood at 1.06E+04 cells ml^−1. Further, in series [3] (end of incubation), the “Percentage of healthy zooxanthellae released” value was 3%, the “Percentage of pale zooxanthellae released” value is recorded as 38% and the “Percentage of transparent zooxanthellae released” value is recorded as 59%. Besides, the Eco-compatibility entry with coral reefs (criteria: bleaching level, zooxanthellae release, zooxanthellae health, viral enrichment, listed as MBBT) was “greater eco-compatibility; also recorded: Highly compatible”.
Consider `CCCCC(CC)COC(=O)c1ccc(Nc2nc(Nc3ccc(C(=O)OCC(CC)CCCC)cc3)nc(Nc3ccc(C(=O)OCC(CC)CCCC)cc3)n2)cc1` (stereo not drawn) [System D24, ethylhexyl triazone], for which the “Total viral abundances (TVN)” value in series [1] (incubation 0 (start)) is listed as 9.58E+04 viruses ml^−1. For the same compound, the “Total viral abundances (TVN)” value in series [1] (incubation 12 h) was 1.08E+06 viruses ml^−1. Also, the “Viral enrichment factor (VEF)” value in series [1] was 12.58. For the same compound, the “Bacterial abundance” value in series [2] (incubation 0 (start)) turned out to be 2.09E+04. Besides, in series [2] (incubation 12 h), the “Bacterial abundance” value was found to be 7.41E+05. Moreover, in series [3], the Healthy zooxanthellae released was found to be 2.68E+02 cells ml^−1; the Pale zooxanthellae released is reported as 8.39E+03 cells ml^−1; the Total zooxanthellae released worked out at 1.89E+04 cells ml^−1; the “Transparent (i.e., dead) zooxanthellae released” value was 1.02E+04 cells ml^−1. For the same compound, in series [3] (end of incubation), the “Percentage of healthy zooxanthellae released” value is 1%, the “Percentage of pale zooxanthellae released” value came out at 44% and the “Percentage of transparent zooxanthellae released” value is reported as 54%. Moreover, the Eco-compatibility result in the series on coral reefs is “Compatible”.
In the case of “2-phospho-ascorbic acid trisodium salt [System D18]”, the “Total viral abundances (TVN)” value in series [1] (incubation 0 (start)) amounted to 3.70E+05 viruses ml^−1. The “Total viral abundances (TVN)” value in series [1] (incubation 12 h) came to 2.51E+06 viruses ml^−1. Besides, in series [1], the “Viral enrichment factor (VEF)” value amounted to 7.09. In series [4], the “Number of color channels (of 4, CMYK) significantly altered” value came out at 4; the “One-way ANOVA probability level, color component Black (K)” value is on record as “** (** = P < 0.01)”; the “One-way ANOVA probability level, color component Cyan (C)” value was “** (** = P < 0.01)”; the “One-way ANOVA probability level, color component Magenta (M)” value is “** (** = P < 0.01)”. The “One-way ANOVA probability level, color component Yellow (Y)” value in series [4] is “* (* = P < 0.05)”. Besides, in series [2] (incubation 0 (start)), the “Bacterial abundance” value is given as 3.86E+04. Further, the “Bacterial abundance” value in series [2] (incubation 12 h) came out at 1.39E+06. In series [3] (end of incubation), the “Final abundance of zooxanthellae in water surrounding the coral nubbins” value is given as 4.45 ×10^4 cell ml^−1, the “Percentage of healthy zooxanthellae released” value was 5%, the “Percentage of pale zooxanthellae released” value worked out at 52% and the “Percentage of transparent zooxanthellae released” value is given as 43%. In series [3], the Healthy zooxanthellae released is 1.14E+03 cells ml^−1; the Pale zooxanthellae released is recorded as 1.09E+04 cells ml^−1; the Total zooxanthellae released is listed as 2.11E+04 cells ml^−1; the “Transparent (i.e., dead) zooxanthellae released” value came out at 9.06E+03 cells ml^−1. Besides, the “Abundance of released zooxanthellae compared with the BLK system” value in series [3] is “significantly higher”.
Take `C/C=C/C=C/C(=O)O` [sorbic acid]: the “Harm to the marine environment of coral reefs” value in the series on coral reefs was “did not prove harmful”.
